Reference: US20230023332A1, “OLEAN-PHENYLACRYLAMIDE DERIVATIVE, METHOD FOR PREPARING SAME, AND USE THEREOF” (Lunan Pharmaceutical Group Corporation, priority 2019, published 2023)
Read-outs that look alike come from different tables or passages of the source.

Assays:
Format in all cases: cell-based
[1] = test system: human breast cancer cell strain MCF-7; assay: MTT proliferation inhibition, MCF-7; conditions: Homo sapiens, MCF7, MCF-7 cells, 48 h, read-out: Inhibitory activity (IC50) against proliferation, MCF-7
Experimental: (§1) The anti-tumor activity of the compounds of the present invention was determined by the method of methyl thiazolyl tetrazolium (MTT), Bardoxolone Methyl (CDDO-Me) being selected as a positive control medicament.
(§2) Instruments: ultra-clean bench (SW-CJ-1FD, AIRTECH, Suzhou Antai Airtech Co. Ltd.), constant-temperature CO2 incubator (3111, Thermo, USA), inverted biomicroscope (IX71, OLYMPUS, Japan), ELISA microplate reader (Model 680, BIO-RAD, USA), platform shaker (Kylin-bell lab Instruments), autoclave (YXO.SG4I.280, Shanghai Huaxian), and centrifuge (SIGMA).
(§3) Reagents: DMEM (GIBCO), fetal bovine serum (GIBCO), trypsin (SIGMA), and DMSO (SIGMA).
(§4) Cell strains: human non-small cell lung cancer cell strain A549, human liver cancer cell strain HepG2, human breast cancer cell strain MCF-7, human renal tubular epithelial cells HK-2, rat embryonic cardiomyocytes H9C2 (all provided by Jiangsu KeyGEN BioTECH Co., Ltd.).
(§5) Methods: the cryopreserved cell strains were resuscitated and cultured in a CO2 incubator at a constant temperature of 37° C. with liquid being changed once daily. Plating was carried out when the cell strains were in a good state in the exponential phase. 1 mL of 0.25% trypsin solution was added for digestion for 1-2 min. The cell status was observed under the microscope, and when the adherent cells became round and shrunk, the digestion solution was aspirated and 1-2 mL of a DMEM medium containing 10% fetal bovine serum was added to obtain a cell suspension, on which a cell count was performed. The amount of required cell suspension was calculated on the basis of 5×10^4 cells per well and the total number of wells. The cell suspension was inoculated on a 96-well plate at 100 μL/well, the surroundings being blocked with PBS, followed by incubation in a CO2 incubator at a constant temperature of 37° C. for 24 h.
(§6) The test medicament, positive control medicament CDDO-Me, and blank control group DMSO were prepared in DMEM media to a final concentration of 5 μM/well, each medicament being placed in 3 replicate wells, followed by incubation for 48 h. The MTT reagent was added to the 96-well plate at 10 μL/well to further incubate for 4 h. The medium in the plate was aspirated and 100 μL of DMSO was added to each well, followed by shaking on the platform shaker for 10 min such that the crystals were dissolved. The absorbance of each well was examined by the ELISA microplate reader at a wavelength of 570 nm, and the cell inhibition rate was calculated according to the formula hereinafter. The mean value of three preliminary screening results was taken as the final inhibition rate thereof.
(§7) Cell inhibition rate (%)=[(OD value of blank control−OD value of dosing cohort)/OD value of blank control group]×100%

[2] = test system: human non-small cell lung cancer cell strain A549; assay: MTT proliferation inhibition, A549; conditions: Homo sapiens, A549 cells, 48 h, read-out: Inhibitory activity (IC50) against proliferation, A549
Experimental: as §1, §2, §3, §4, §5, §6, §7

[3] = test system: human liver cancer cell strain HepG2; assay: MTT proliferation inhibition, HepG2; conditions: Homo sapiens, HepG2 cells, 48 h, read-out: Inhibitory activity (IC50) against proliferation, HepG2
Experimental: as §1, §2, §3, §4, §5
The MTT reagent was added to the 96-well plate at 10 μL/well to further incubate for 4 h. The medium in the plate was aspirated and 100 μL of DMSO was added to each well, followed by shaking on the platform shaker for 10 min such that the crystals were dissolved. […] The mean value of three preliminary screening results was taken as the final inhibition rate thereof.
as §7

[4] = test system: human renal tubular epithelial cells HK-2; assay: MTT proliferation inhibition / toxicity, HK-2; conditions: for IC50: Homo sapiens, HK-2 cells, MTT, 48 h, read-out: Inhibitory activity (IC50) against proliferation, HK-2; for toxicity to human renal tubular epithelial cells HK-2: statement in words
Experimental: as §1, §2, §3, §4, §5, §6, §7

[5] = test system: rat embryonic cardiomyocytes H9C2; assay: MTT proliferation inhibition / toxicity, H9C2; conditions: Rattus norvegicus, H9C2 cardiomyocytes, MTT, 48 h, read-out: Inhibitory activity (IC50) against proliferation, H9C2
Experimental: as §1, §2, §3, §4, §5, §6, §7

SMILES | IC50 [1] [nM] | IC50 [2] [nM] | IC50 [3] [nM] | IC50 [4] [nM] | IC50 [5] [nM] | toxicity to human renal tubular epithelial cells HK-2 [4] | IC50 ([5]; H9c2, 48 h) [nM]
CC1(C)CC[C@]2(NC(=O)/C=C(\C#N)c3ccccc3)CC[C@]3(C)[C@H](C(=O)C=C4[C@@]5(C)C=C(C#N)C(=O)C(C)(C)[C@@H]5CC[C@]43C)[C@@H]2C1 [Compound I-13] | 375 ± 130 | 414 ± 17 | 328 ± 13 | 473 ± 630 |  | lower toxicity | 7 ± 9
Cc1ccc(/C=C/C(=O)N[C@]23CCC(C)(C)C[C@H]2[C@H]2C(=O)C=C4[C@@]5(C)C=C(C#N)C(=O)C(C)(C)[C@@H]5CC[C@@]4(C)[C@]2(C)CC3)cc1 [Compound I-2] | 547 ± 74 | 549 ± 10 | 772 ± 63 | 1390 ± 32 | 218 ± 7 | lower toxicity | 
COc1ccc(/C=C/C(=O)N[C@]23CCC(C)(C)C[C@H]2[C@H]2C(=O)C=C4[C@@]5(C)C=C(C#N)C(=O)C(C)(C)[C@@H]5CC[C@@]4(C)[C@]2(C)CC3)cc1 [Compound I-3] | 375 ± 38 | 367 ± 18 | 527 ± 133 | 700 ± 16 | 174 ± 5 | lower toxicity | 
CC1(C)CC[C@]2(NC(=O)/C=C(\C#N)c3ccc(Cl)cc3)CC[C@]3(C)[C@H](C(=O)C=C4[C@@]5(C)C=C(C#N)C(=O)C(C)(C)[C@@H]5CC[C@]43C)[C@@H]2C1 [Compound I-18] | 500 ± 170 | 300 ± 13 | 406 ± 17 | 647 ± 21 |  | lower toxicity | 
CC1(C)CC[C@]2(NC(=O)/C=C/c3ccc(C(F)(F)F)cc3)CC[C@]3(C)[C@H](C(=O)C=C4[C@@]5(C)C=C(C#N)C(=O)C(C)(C)[C@@H]5CC[C@]43C)[C@@H]2C1 [Compound I-4] | 562 ± 132 | 402 ± 20 | 412 ± 6 | 516 ± 72 | 215 ± 4 | lower toxicity | 
CC1(C)CC[C@]2(NC(=O)/C=C/c3ccccc3)CC[C@]3(C)[C@H](C(=O)C=C4[C@@]5(C)C=C(C#N)C(=O)C(C)(C)[C@@H]5CC[C@]43C)[C@@H]2C1 [Compound I-1] | 574 ± 21 | 599 ± 377 | 409 ± 16 | 799 ± 92 | 251 ± 8 | lower toxicity | 

More lines, main results first:

IC50 [1] [nM] | IC50 [2] [nM] | IC50 [3] [nM] | SMILES | IC50 [4] [nM] | IC50 [5] [nM] | toxicity to human renal tubular epithelial cells HK-2 [4] | IC50 ([5]; H9c2, 48 h) [nM]
551 ± 140 | 658 ± 58 | 524 ± 32 | COc1ccc(/C(C#N)=C/C(=O)N[C@]23CCC(C)(C)C[C@H]2[C@H]2C(=O)C=C4[C@@]5(C)C=C(C#N)C(=O)C(C)(C)[C@@H]5CC[C@@]4(C)[C@]2(C)CC3)cc1 [Compound I-15] | 350 ± 37 | 146 ± 12 |  | 
738 ± 9 | 588 ± 36 | 482 ± 2 | CC1(C)CC[C@]2(NC(=O)/C=C/c3ccc(Cl)cc3)CC[C@]3(C)[C@H](C(=O)C=C4[C@@]5(C)C=C(C#N)C(=O)C(C)(C)[C@@H]5CC[C@]43C)[C@@H]2C1 [Compound I-6] | 727 ± 430 | 373 ± 2 | lower toxicity | 
424 ± 129 | 609 ± 67 | 337 ± 12 | CC1(C)CC[C@]2(NC(=O)/C(C#N)=C/c3ccc(F)cc3)CC[C@]3(C)[C@H](C(=O)C=C4[C@@]5(C)C=C(C#N)C(=O)C(C)(C)[C@@H]5CC[C@]43C)[C@@H]2C1 [Compound I-11] | 308 ± 71 | 52 ± 1 |  | 
238 ± 8 | 345 ± 174 | 114 ± 4 | CC1(C)CC[C@]2(NC(=O)/C=C(\C#N)c3ccc(F)cc3)CC[C@]3(C)[C@H](C(=O)C=C4[C@@]5(C)C=C(C#N)C(=O)C(C)(C)[C@@H]5CC[C@]43C)[C@@H]2C1 [Compound I-17] | 229 ± 126 |  |  | 
432 ± 188 | 337 ± 15 | 313 ± 35 | Cc1ccc(/C(C#N)=C/C(=O)N[C@]23CCC(C)(C)C[C@H]2[C@H]2C(=O)C=C4[C@@]5(C)C=C(C#N)C(=O)C(C)(C)[C@@H]5CC[C@@]4(C)[C@]2(C)CC3)cc1 [Compound I-14] | 939 ± 62 | 14 ± 1 | lower toxicity | 
1130 ± 40 | 624 ± 111 | 816 ± 14 | COc1ccc(/C=C(\C#N)C(=O)N[C@]23CCC(C)(C)C[C@H]2[C@H]2C(=O)C=C4[C@@]5(C)C=C(C#N)C(=O)C(C)(C)[C@@H]5CC[C@@]4(C)[C@]2(C)CC3)cc1 [Compound I-9] | 748 ± 341 | 417 ± 19 | lower toxicity | 
460 ± 105 | 362 ± 12 | 297 ± 11 | CC1(C)CC[C@]2(NC(=O)/C(C#N)=C/c3ccc(C(F)(F)F)cc3)CC[C@]3(C)[C@H](C(=O)C=C4[C@@]5(C)C=C(C#N)C(=O)C(C)(C)[C@@H]5CC[C@]43C)[C@@H]2C1 [Compound I-10] | 234 ± 117 | 233 ± 10 |  | 
1310 ± 127 | 788 ± 345 | 785 ± 96 | CC1(C)CC[C@]2(NC(=O)/C=C/c3ccc(F)cc3)CC[C@]3(C)[C@H](C(=O)C=C4[C@@]5(C)C=C(C#N)C(=O)C(C)(C)[C@@H]5CC[C@]43C)[C@@H]2C1 [Compound I-5] | 2825 ± 4 | 316 ± 1 | lower toxicity | 
789 ± 52 | 329 ± 47 | 563 ± 23 | Cc1ccc(/C=C(\C#N)C(=O)N[C@]23CCC(C)(C)C[C@H]2[C@H]2C(=O)C=C4[C@@]5(C)C=C(C#N)C(=O)C(C)(C)[C@@H]5CC[C@@]4(C)[C@]2(C)CC3)cc1 [Compound I-8] | 423 ± 30 | 274 ± 2 | lower toxicity | 
